{"source": "paper PMC10938783", "about": "“A novel pan-PI3K inhibitor KTC1101 synergizes with anti-PD-1 therapy by targeting tumor suppression and immune activation” (Molecular Cancer, 2024)", "tested_on": "B16 cells gene expression", "assay": "RNA-Seq (DEGs, GSEA, heatmaps) of B16 cells", "details": "B16 cells"}
{"molecule": "COc1cc(N)cc2c1nc(C(F)F)n2-c1nc(N2CCCOCC2)nc(N2CCOCC2)n1", "note": "[KTC1101, 2-(difluoromethyl)-4-methoxy-1-(4-morpholino-6-(1,4-oxazepan-4-yl)-1,3,5-triazin-2-yl)-1H-benzo[d]imidazol-6-amine]", "values": [{"measurement": "enrichmentScore, mmu04211 Longevity regulating pathway", "setting": "KTC1101 0.2μM, GSEA KEGG", "value": 0.2589}, {"measurement": "enrichmentScore, mmu04213 Longevity regulating pathway - multiple species", "setting": "KTC1101 0.2μM, GSEA KEGG", "value": 0.2778}, {"measurement": "enrichmentScore, mmu04215 Apoptosis - multiple species", "setting": "KTC1101 0.2μM, GSEA KEGG", "value": 0.3327}, {"measurement": "enrichmentScore, mmu04216 Ferroptosis", "setting": "KTC1101 0.2μM, GSEA KEGG", "value": -0.2787}, {"measurement": "enrichmentScore, mmu04217 Necroptosis", "setting": "KTC1101 0.2μM, GSEA KEGG", "value": -0.2455}, {"measurement": "enrichmentScore, mmu04270 Vascular smooth muscle contraction", "setting": "KTC1101 0.2μM, GSEA KEGG", "value": 0.2845}, {"measurement": "enrichmentScore, mmu04360 Axon guidance", "setting": "KTC1101 0.2μM, GSEA KEGG", "value": 0.2929}, {"measurement": "enrichmentScore, mmu04392 Hippo signaling pathway - multiple species", "setting": "KTC1101 0.2μM, GSEA KEGG", "value": 0.3945}, {"measurement": "enrichmentScore, mmu04514 Cell adhesion molecules", "setting": "KTC1101 0.2μM, GSEA KEGG", "value": 0.3446}, {"measurement": "enrichmentScore, mmu04520 Adherens junction", "setting": "KTC1101 0.2μM, GSEA KEGG", "value": 0.258}, {"measurement": "enrichmentScore, mmu04530 Tight junction", "setting": "KTC1101 0.2μM, GSEA KEGG", "value": -0.1527}, {"measurement": "enrichmentScore, mmu04550 Signaling pathways regulating pluripotency of stem cells", "setting": "KTC1101 0.2μM, GSEA KEGG", "value": 0.3252}, {"measurement": "enrichmentScore, mmu04611 Platelet activation", "setting": "KTC1101 0.2μM, GSEA KEGG", "value": 0.2724}, {"measurement": "enrichmentScore, mmu04612 Antigen processing and presentation", "setting": "KTC1101 0.2μM, GSEA KEGG", "value": 0.2974}, {"measurement": "enrichmentScore, mmu04622 RIG-I-like receptor signaling pathway", "setting": "KTC1101 0.2μM, GSEA KEGG", "value": 0.2627}, {"measurement": "enrichmentScore, mmu04623 Cytosolic DNA-sensing pathway", "setting": "KTC1101 0.2μM, GSEA KEGG", "value": 0.3684}, {"measurement": "enrichmentScore, mmu04650 Natural killer cell mediated cytotoxicity", "setting": "KTC1101 0.2μM, GSEA KEGG", "value": 0.2671}, {"measurement": "enrichmentScore, mmu04658 Th1 and Th2 cell differentiation", "setting": "KTC1101 0.2μM, GSEA KEGG", "value": 0.359}, {"measurement": "enrichmentScore, mmu04660 T cell receptor signaling pathway", "setting": "KTC1101 0.2μM, GSEA KEGG", "value": 0.174}, {"measurement": "enrichmentScore, mmu04662 B cell receptor signaling pathway", "setting": "KTC1101 0.2μM, GSEA KEGG", "value": 0.2749}, {"measurement": "enrichmentScore, mmu04666 Fc gamma R-mediated phagocytosis", "setting": "KTC1101 0.2μM, GSEA KEGG", "value": -0.2944}, {"measurement": "enrichmentScore, mmu04670 Leukocyte transendothelial migration", "setting": "KTC1101 0.2μM, GSEA KEGG", "value": 0.2117}, {"measurement": "enrichmentScore, mmu04714 Thermogenesis", "setting": "KTC1101 0.2μM, GSEA KEGG", "value": -0.2154}, {"measurement": "enrichmentScore, mmu04720 Long-term potentiation", "setting": "KTC1101 0.2μM, GSEA KEGG", "value": 0.2329}, {"measurement": "enrichmentScore, mmu04723 Retrograde endocannabinoid signaling", "setting": "KTC1101 0.2μM, GSEA KEGG", "value": 0.2816}, {"measurement": "enrichmentScore, mmu04726 Serotonergic synapse", "setting": "KTC1101 0.2μM, GSEA KEGG", "value": 0.3744}, {"measurement": "enrichmentScore, mmu04727 GABAergic synapse", "setting": "KTC1101 0.2μM, GSEA KEGG", "value": 0.3552}, {"measurement": "enrichmentScore, mmu04728 Dopaminergic synapse", "setting": "KTC1101 0.2μM, GSEA KEGG", "value": 0.2754}, {"measurement": "enrichmentScore, mmu04730 Long-term depression", "setting": "KTC1101 0.2μM, GSEA KEGG", "value": 0.3483}, {"measurement": "enrichmentScore, mmu04750 Inflammatory mediator regulation of TRP channels", "setting": "KTC1101 0.2μM, GSEA KEGG", "value": 0.2734}, {"measurement": "enrichmentScore, mmu04910 Insulin signaling pathway", "setting": "KTC1101 0.2μM, GSEA KEGG", "value": 0.2919}, {"measurement": "enrichmentScore, mmu04912 GnRH signaling pathway", "setting": "KTC1101 0.2μM, GSEA KEGG", "value": 0.3311}, {"measurement": "enrichmentScore, mmu04915 Estrogen signaling pathway", "setting": "KTC1101 0.2μM, GSEA KEGG", "value": 0.2687}, {"measurement": "enrichmentScore, mmu04916 Melanogenesis", "setting": "KTC1101 0.2μM, GSEA KEGG", "value": 0.2873}, {"measurement": "enrichmentScore, mmu04917 Prolactin signaling pathway", "setting": "KTC1101 0.2μM, GSEA KEGG", "value": 0.2949}, {"measurement": "enrichmentScore, mmu04920 Adipocytokine signaling pathway", "setting": "KTC1101 0.2μM, GSEA KEGG", "value": 0.3361}, {"measurement": "enrichmentScore, mmu04929 GnRH secretion", "setting": "KTC1101 0.2μM, GSEA KEGG", "value": -0.3021}, {"measurement": "enrichmentScore, mmu04930 Type II diabetes mellitus", "setting": "KTC1101 0.2μM, GSEA KEGG", "value": 0.385}, {"measurement": "enrichmentScore, mmu04932 Non-alcoholic fatty liver disease", "setting": "KTC1101 0.2μM, GSEA KEGG", "value": -0.2292}, {"measurement": "enrichmentScore, mmu04934 Cushing syndrome", "setting": "KTC1101 0.2μM, GSEA KEGG", "value": 0.2719}, {"measurement": "enrichmentScore, mmu04936 Alcoholic liver disease", "setting": "KTC1101 0.2μM, GSEA KEGG", "value": 0.2103}, {"measurement": "enrichmentScore, mmu04960 Aldosterone-regulated sodium reabsorption", "setting": "KTC1101 0.2μM, GSEA KEGG", "value": 0.4243}, {"measurement": "enrichmentScore, mmu04961 Endocrine and other factor-regulated calcium reabsorption", "setting": "KTC1101 0.2μM, GSEA KEGG", "value": 0.3281}, {"measurement": "enrichmentScore, mmu04962 Vasopressin-regulated water reabsorption", "setting": "KTC1101 0.2μM, GSEA KEGG", "value": 0.3811}, {"measurement": "enrichmentScore, mmu04970 Salivary secretion", "setting": "KTC1101 0.2μM, GSEA KEGG", "value": 0.3709}, {"measurement": "enrichmentScore, mmu04972 Pancreatic secretion", "setting": "KTC1101 0.2μM, GSEA KEGG", "value": 0.3054}, {"measurement": "enrichmentScore, mmu05017 Spinocerebellar ataxia", "setting": "KTC1101 0.2μM, GSEA KEGG", "value": -0.2487}, {"measurement": "enrichmentScore, mmu05031 Amphetamine addiction", "setting": "KTC1101 0.2μM, GSEA KEGG", "value": 0.3398}, {"measurement": "enrichmentScore, mmu05034 Alcoholism", "setting": "KTC1101 0.2μM, GSEA KEGG", "value": 0.2877}, {"measurement": "enrichmentScore, mmu05100 Bacterial invasion of epithelial cells", "setting": "KTC1101 0.2μM, GSEA KEGG", "value": 0.1912}, {"measurement": "enrichmentScore, mmu05132 Salmonella infection", "setting": "KTC1101 0.2μM, GSEA KEGG", "value": -0.223}, {"measurement": "enrichmentScore, mmu05133 Pertussis", "setting": "KTC1101 0.2μM, GSEA KEGG", "value": 0.2038}, {"measurement": "enrichmentScore, mmu05134 Legionellosis", "setting": "KTC1101 0.2μM, GSEA KEGG", "value": 0.3271}, {"measurement": "enrichmentScore, mmu05135 Yersinia infection", "setting": "KTC1101 0.2μM, GSEA KEGG", "value": 0.1452}, {"measurement": "enrichmentScore, mmu05145 Toxoplasmosis", "setting": "KTC1101 0.2μM, GSEA KEGG", "value": 0.3104}, {"measurement": "enrichmentScore, mmu05160 Hepatitis C", "setting": "KTC1101 0.2μM, GSEA KEGG", "value": -0.1925}, {"measurement": "enrichmentScore, mmu05162 Measles", "setting": "KTC1101 0.2μM, GSEA KEGG", "value": 0.3001}, {"measurement": "enrichmentScore, mmu05165 Human papillomavirus infection", "setting": "KTC1101 0.2μM, GSEA KEGG", "value": 0.2105}, {"measurement": "enrichmentScore, mmu05170 Human immunodeficiency virus 1 infection", "setting": "KTC1101 0.2μM, GSEA KEGG", "value": 0.2282}, {"measurement": "enrichmentScore, mmu05200 Pathways in cancer", "setting": "KTC1101 0.2μM, GSEA KEGG", "value": 0.2563}, {"measurement": "enrichmentScore, mmu05203 Viral carcinogenesis", "setting": "KTC1101 0.2μM, GSEA KEGG", "value": 0.2271}, {"measurement": "enrichmentScore, mmu05204 Chemical carcinogenesis - DNA adducts", "setting": "KTC1101 0.2μM, GSEA KEGG", "value": -0.3876}, {"measurement": "enrichmentScore, mmu05206 MicroRNAs in cancer", "setting": "KTC1101 0.2μM, GSEA KEGG", "value": 0.2735}, {"measurement": "enrichmentScore, mmu05207 Chemical carcinogenesis - receptor activation", "setting": "KTC1101 0.2μM, GSEA KEGG", "value": 0.2555}, {"measurement": "enrichmentScore, mmu05210 Colorectal cancer", "setting": "KTC1101 0.2μM, GSEA KEGG", "value": 0.2135}, {"measurement": "enrichmentScore, mmu05211 Renal cell carcinoma", "setting": "KTC1101 0.2μM, GSEA KEGG", "value": -0.2497}, {"measurement": "enrichmentScore, mmu05212 Pancreatic cancer", "setting": "KTC1101 0.2μM, GSEA KEGG", "value": -0.2279}, {"measurement": "enrichmentScore, mmu05213 Endometrial cancer", "setting": "KTC1101 0.2μM, GSEA KEGG", "value": -0.2692}, {"measurement": "enrichmentScore, mmu05214 Glioma", "setting": "KTC1101 0.2μM, GSEA KEGG", "value": 0.2912}, {"measurement": "enrichmentScore, mmu05216 Thyroid cancer", "setting": "KTC1101 0.2μM, GSEA KEGG", "value": 0.217}, {"measurement": "enrichmentScore, mmu05218 Melanoma", "setting": "KTC1101 0.2μM, GSEA KEGG", "value": 0.3678}, {"measurement": "enrichmentScore, mmu05219 Bladder cancer", "setting": "KTC1101 0.2μM, GSEA KEGG", "value": 0.2813}, {"measurement": "enrichmentScore, mmu05220 Chronic myeloid leukemia", "setting": "KTC1101 0.2μM, GSEA KEGG", "value": 0.2762}, {"measurement": "enrichmentScore, mmu05223 Non-small cell lung cancer", "setting": "KTC1101 0.2μM, GSEA KEGG", "value": -0.2111}, {"measurement": "enrichmentScore, mmu05231 Choline metabolism in cancer", "setting": "KTC1101 0.2μM, GSEA KEGG", "value": 0.3293}, {"measurement": "enrichmentScore, mmu05235 PD-L1 expression and PD-1 checkpoint pathway in cancer", "setting": "KTC1101 0.2μM, GSEA KEGG", "value": 0.291}, {"measurement": "enrichmentScore, mmu05412 Arrhythmogenic right ventricular cardiomyopathy", "setting": "KTC1101 0.2μM, GSEA KEGG", "value": 0.3444}, {"measurement": "enrichmentScore, mmu05416 Viral myocarditis", "setting": "KTC1101 0.2μM, GSEA KEGG", "value": 0.3314}, {"measurement": "enrichmentScore, mmu05417 Lipid and atherosclerosis", "setting": "KTC1101 0.2μM, GSEA KEGG", "value": 0.3016}, {"measurement": "NES: Coronavirus disease - COVID-19", "setting": "[…], KTC 0.2μM", "value": 2.023}, {"measurement": "enrichmentScore: Coronavirus disease - COVID-19", "setting": "[…], KTC 0.2μM", "value": 0.5276}]}
